Assay results from patent US20220009988A1, “PEPTIDE MODULATORS OF THE INTERACTION BETWEEN HUMAN C-PEPTIDE AND HUMAN ELASTIN RECEPTOR FOR THERAPEUTIC USE” (Biotempt B.V., priority 2017, published 2022).

Columns and labels:
[1] = test system: glucose-induced vascular dysfunction; conditions: cited from earlier work; for normalization (%) of 30 mM glucose-induced vascular dysfunction: rats, FIG. 1 adapted from Ido et al. 1997; for prevention of vascular dysfunction (active / inactive) / potency on vascular dysfunction relative to native C-peptide: skin chamber granulation tissue model in rats
[2] = target: human elastin receptor (elastin binding protein, EBP) on CD4+ immune cells (human)
bioactivity of C-peptide = test: preliminary in-vitro inhibition of bioactivity of C-peptide; conditions: preliminary in-vitro results
CD4+ immune cells = test: classical Boyden chamber experiment, migration of CD4+ immune cells; format: cell-based; conditions: V14-peptide at 1.3 microM; C-peptide at 10 nM
Text: Moreover, additional examples of fragments of the human C-peptide are provided herein and ^14, all bearing a mid-portion hexapeptide 12 SEQ ID NO:34 (LGGGPG) 17, that all prevented vascular dysfunction whereas other human C-peptide fragments, wherein the hexapeptide mid-portion was disrupted, were found not active. […] Human C-peptide and its xGxxPG containing fragments may thus be considered an unexpected species of the genus of a larger class of peptides: elastin peptides capable of elastin receptor activation, whereby excess C-peptide may be meddling with elastin receptor mediated tissue repair, modulating chronic-low grade inflammation, IR and hypertension. […] This provides a substantial jump in our understanding of the causes of metabolic syndrome and other lifestyle- or age-related conditions of IR. […] It is provided to do these tests with synthetic human C-peptide variants or fragments, provided with or without the sequence GxxP, to study binding, including classical elastin receptor antagonist V14 peptide to study inhibition of binding. Similarly, one can do the C-peptide tests in a skin chamber granulation tissue model of vascular function ^14, or test synthetic, inducibly or constitutively expressed C-peptide in established models of atherosclerosis, Neu-1 mediated IR or PPCA mediated hypertension ^7-9.

[3] = test system: human renal tubular cells; conditions: cited from earlier work
[4] = test system: cell membrane-bound C-peptide; conditions: cited from earlier work
[5] = test system: MAP kinase signaling pathways; conditions: cited from earlier work
Na^+K^+ATPase = conditions: rat renal tubule cells; cited from earlier work

DLQVGQVELGGGPGAGSLQPLALEGSLQ [SEQ ID NO:10]
normalization (%) of 30 mM glucose-induced vascular dysfunction [1]: significant normalization

VGQVELGGGPGAGSLQPL [SEQ ID NO:175]
normalization (%) of 30 mM glucose-induced vascular dysfunction [1]: significant normalization

EAENPQAGAVELGGGLGGLQALALEGPPQ [pig C-peptide]
prevention of vascular dysfunction (active / inactive) [1]: inactive

QLSGELALPQLSGAGPGGGLEVQGVQLDEAE (retro C-peptide)
potency on vascular dysfunction relative to native C-peptide [1]: equipotent to native C-peptide

human C-peptide
migration of CD4+ immune cells in a classical Boyden chamber experiment (% increase of migration) [2]: 100

EVEDPQVPQLELGGGPEAGDLQTLALEVARQ [Rat C-peptide]
prevention of vascular dysfunction (active / inactive) [1]: active

DLQVGQVELGGGPGAGSLQPL [SEQ ID NO:20]
normalization (%) of 30 mM glucose-induced vascular dysfunction [1]: significant normalization

VVGSPSAQDEASPL [V14-peptide]
inhibition of bioactivity of C-peptide (bioactivity of C-peptide): inhibition | C-peptide-induced CD4-migration inhibited, antagonized and diminished (CD4+ immune cells): > 50%

EVARQ [SEQ ID NO:7]
intracellular Ca2+ [3]: may induce intracellular Ca2+ increases

D--1EAEDLQVGQVELGGGPGAGSLQPLALEGSLQ31 [enantio C-peptide]
potency on vascular dysfunction relative to native C-peptide [1]: equipotent to native C-peptide

EAEDLQVGQVELGGGPGAGSLQPL (EAEDLQVGQVELGGGPGAGSLQPLAL) [SEQ ID NO:17]
normalization (%) of 30 mM glucose-induced vascular dysfunction [1]: significant normalization

GGGPGAG [SEQ ID NO:8]
normalization (%) of 30 mM glucose-induced vascular dysfunction [1]: normalize

EGSLQ [SEQ ID NO:6]
intracellular Ca2+ [3]: may induce intracellular Ca2+ increases | displacement of cell membrane-bound C-peptide [4]: displaces | MAP kinase signaling pathways [5]: stimulates

ELGGGPGAG [SEQ ID NO:9]
Na^+K^+ATPase activity (Na^+K^+ATPase): stimulate

LGGGPGAGSLQPLALEGSLQ [SEQ ID NO:14]
normalization (%) of 30 mM glucose-induced vascular dysfunction [1]: significant normalization

GQVELGGGPGAGSLQPLALEGSLQ [SEQ ID NO:13]
normalization (%) of 30 mM glucose-induced vascular dysfunction [1]: significant normalization

ELGGGPGAGSLQPL [SEQ ID NO:176]
normalization (%) of 30 mM glucose-induced vascular dysfunction [1]: significant normalization
